Laboratory results from ChEMBL document CHEMBL4680249, “Discovery of new LXRβ agonists as glioblastoma inhibitors” (Eur J Med Chem, 2020).
Calls of active or inactive are those of the source. The calls are words filed in the database; no cut-off is given here.

Key:
U-87 MG [1] = assay: Antiproliferative activity against human U87 cells overexpressing EGFR variant III measured after 7 days by CCK8 assay; type: functional, cell-based, U-87MG ATCC
U-251 = assay: Antiproliferative activity against human U-251 cells measured after 7 days by CCK8 assay; settings: U-251, 168 h
U87 [2] = assay: Agonist activity at LXR in human U87 cells overexpressing EGFR variant III assessed as up regulation of SREBP1c mRNA expression measured after 48 hrs by SYBR green staining based qRT-PCR analysis; type: cell-based; settings: filed as agonist
[3] = Cytotoxicity against human HA1800 cells measured after 7 days by CCK8 assay; type: cell-based; settings: ha1800, 168 h, time 7 day
A 172 = assay: Antiproliferative activity against human A 172 cells measured after 7 days by CCK8 assay; settings: A 172, 168 h
U87 [4] = assay: Agonist activity at LXR in human U87 cells overexpressing EGFR variant III assessed as up regulation of APOE mRNA expression measured after 48 hrs by SYBR green staining based qRT-PCR analysis; type: cell-based; settings: filed as agonist
U87 [5] = assay: Agonist activity at LXR in human U87 cells overexpressing EGFR variant III assessed as up regulation of IDOL mRNA expression measured after 48 hrs by SYBR green staining based qRT-PCR analysis; type: cell-based; settings: filed as agonist
U87 [6] = assay: Agonist activity at LXR in human U87 cells overexpressing EGFR variant III assessed as up regulation of ABCG1 mRNA expression measured after 48 hrs by SYBR green staining based qRT-PCR analysis; type: cell-based; settings: filed as agonist
U-87 MG [7] = assay: Antiproliferative activity against LXRbeta knock-down human U87 cells overexpressing EGFR variant III measured after 7 days by CCK8 assay; type: functional, cell-based; settings: U-87MG ATCC, time 7.0 day
U87 [8] = assay: Agonist activity at LXR in human U87 cells overexpressing EGFR variant III assessed as up regulation of ABCA1 mRNA expression measured after 48 hrs by SYBR green staining based qRT-PCR analysis; type: cell-based; settings: filed as agonist
HEK-293T = assay: Cytotoxicity against HEK293T cells measured after 7 days by CCK8 assay; type: cell-based; settings: human, 168 h, time 7 day
[9] = MRT (infinity) in Sprague-Dawley rat at 10 mg/kg, iv measured after 24 hrs by LC-MS/MS analysis; type: ADME, organism-based; settings: in vivo
[10] = Effect on serum triglyceride level in Balb/c nu/nu mouse xenografted with human U87 cells overexpressing EGFR variant III at 50 mg/kg/day, ip for 15 days; type: ADME, organism-based; settings: in vivo, 360 h, time 15 day
[11] = Toxicity in Balb/c nu/nu mouse xenografted with human U87 cells overexpressing EGFR variant III assessed as body weight loss at 50 mg/kg/day, ip for 15 days; type: organism-based; settings: in vivo, 360 h, time 15 day
[12] = Half life in Sprague-Dawley rat at 10 mg/kg, iv measured after 24 hrs by LC-MS/MS analysis; type: ADME, organism-based; settings: in vivo
[13] = Cmax in Sprague-Dawley rat at 10 mg/kg, iv measured after 24 hrs by LC-MS/MS analysis; type: ADME, organism-based; design: route intravenous, time 24 hrs, dose 10 mg/kg; settings: in vivo
[14] = AUC (0 to t) in Sprague-Dawley rat at 10 mg/kg, iv measured after 24 hrs by LC-MS/MS analysis; type: ADME, organism-based; design: route intravenous, time 24 hrs, dose 10 mg/kg; settings: in vivo
[15] = AUC (0 to infinity) in Sprague-Dawley rat at 10 mg/kg, iv measured after 24 hrs by LC-MS/MS analysis; type: ADME, organism-based; design: route intravenous, dose 10 mg/kg, time 24 hrs; settings: in vivo
U-87 MG [16] = assay: Antitumor activity against human U87 cells overexpressing EGFR variant III xenografted in Balb/c nu/nu mouse assessed as reduction in tumor size at 50 mg/kg/day, ip for 15 days by caliper method; type: functional, organism-based; settings: U-87MG ATCC, time 15.0 day
[17] = Tmax in Sprague-Dawley rat at 10 mg/kg, iv measured after 24 hrs by LC-MS/MS analysis; type: ADME, organism-based; settings: in vivo
[18] = biological target: Retinoic acid receptor RXR-alpha/oxysterols receptor LXR-alpha (Homo sapiens, UniProt Q13133)
Chain of Retinoic acid receptor RXR-alpha/oxysterols receptor LXR-alpha (P19793 whole entry): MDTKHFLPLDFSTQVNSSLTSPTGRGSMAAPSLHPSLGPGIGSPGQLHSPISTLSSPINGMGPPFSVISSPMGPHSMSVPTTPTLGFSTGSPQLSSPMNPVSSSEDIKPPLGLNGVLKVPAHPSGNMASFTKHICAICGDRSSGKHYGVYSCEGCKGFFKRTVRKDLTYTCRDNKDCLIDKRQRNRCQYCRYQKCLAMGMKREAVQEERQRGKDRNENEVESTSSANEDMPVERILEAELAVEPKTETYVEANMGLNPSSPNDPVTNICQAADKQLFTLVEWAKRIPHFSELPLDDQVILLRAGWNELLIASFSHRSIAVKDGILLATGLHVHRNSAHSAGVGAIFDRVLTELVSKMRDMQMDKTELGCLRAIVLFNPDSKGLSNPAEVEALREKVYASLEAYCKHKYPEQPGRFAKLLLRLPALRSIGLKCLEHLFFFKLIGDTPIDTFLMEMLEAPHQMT
Chain of Retinoic acid receptor RXR-alpha/oxysterols receptor LXR-alpha (Q13133 whole entry): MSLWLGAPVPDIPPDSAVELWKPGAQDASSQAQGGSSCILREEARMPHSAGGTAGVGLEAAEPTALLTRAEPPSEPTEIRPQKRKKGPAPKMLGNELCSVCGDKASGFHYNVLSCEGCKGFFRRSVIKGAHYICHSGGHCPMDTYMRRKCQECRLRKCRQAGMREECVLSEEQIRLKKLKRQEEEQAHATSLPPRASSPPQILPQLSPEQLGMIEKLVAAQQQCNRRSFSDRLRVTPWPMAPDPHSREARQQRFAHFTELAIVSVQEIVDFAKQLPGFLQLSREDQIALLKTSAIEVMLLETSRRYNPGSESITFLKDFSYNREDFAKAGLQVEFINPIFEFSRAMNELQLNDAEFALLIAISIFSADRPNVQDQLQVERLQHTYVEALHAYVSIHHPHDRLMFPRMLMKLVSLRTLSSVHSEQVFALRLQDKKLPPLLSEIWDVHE
Description: Agonist activity at human RXRalpha/LXRalpha expressed in HEK293 cells measured after 20 hrs by dual luciferase reporter gene assay

[19] = biological target: Retinoic acid receptor RXR-alpha/oxysterols receptor LXR-beta (Homo sapiens, UniProt P55055)
Chain of Retinoic acid receptor RXR-alpha/oxysterols receptor LXR-beta (P19793 whole entry): as the sequence (P19793 whole entry) above
Chain of Retinoic acid receptor RXR-alpha/oxysterols receptor LXR-beta (P55055 whole entry): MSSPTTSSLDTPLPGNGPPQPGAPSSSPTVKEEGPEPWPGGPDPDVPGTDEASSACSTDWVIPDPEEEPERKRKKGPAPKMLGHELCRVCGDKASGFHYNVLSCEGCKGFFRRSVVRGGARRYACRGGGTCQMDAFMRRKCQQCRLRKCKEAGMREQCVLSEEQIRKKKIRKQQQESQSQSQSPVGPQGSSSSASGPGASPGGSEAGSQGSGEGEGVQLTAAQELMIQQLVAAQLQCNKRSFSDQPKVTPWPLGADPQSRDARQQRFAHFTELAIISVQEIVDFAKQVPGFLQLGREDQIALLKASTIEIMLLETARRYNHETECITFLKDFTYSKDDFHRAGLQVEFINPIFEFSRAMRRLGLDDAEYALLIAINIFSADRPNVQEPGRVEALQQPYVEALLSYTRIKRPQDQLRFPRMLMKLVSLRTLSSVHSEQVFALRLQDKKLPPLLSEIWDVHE
Description: Agonist activity at human RXRalpha/LXRbeta expressed in HEK293 cells measured after 20 hrs by dual luciferase reporter gene assay

[20] = Homo sapiens, U-87 MG, 168 h, read-out: IC50

Compound: CN(C)C(=O)c1ccc(-c2cccc([C@H]3N(C(=O)OC(C)(C)C)CC[C@]34C(=O)Nc3ccccc34)c2)cc1Cl
- IC50 (U-87 MG [1]; u-87mg atcc): Not Active

Compound: CC(C)(C)OC(=O)N1CCC2(C(=O)Nc3ccccc32)C1c1cccc(-c2ccccc2)c1 (centres undefined)
- IC50 (U-87 MG [1]; [20]): 22.6 µM

Compound: CC(C)(C)OC(=O)N1CC[C@@]2(C(=O)Nc3ccccc32)[C@@H]1c1cccc(Nc2ccc(CO)c(S(C)(=O)=O)c2)c1
- IC50 (U-87 MG [1]; u-87mg atcc): Not Active

Compound: CC(C)(C)OC(=O)N1CC[C@]2(C(=O)Nc3ccccc32)[C@H]1c1cccc(Nc2ccc(CO)c(S(C)(=O)=O)c2)c1
- IC50 (U-87 MG [1]; [20]): 1.78 µM
- IC50 (U-251): 2.23 µM
- Activity (U87 [2]): Dose-dependent effect
- Activity [3]: Non-Toxic
- IC50 (A 172): 6.03 µM
- Activity (U87 [4]): Dose-dependent effect
- Activity (U87 [5]): Dose-dependent effect
- Activity (U87 [6]): Dose-dependent effect
- Activity (U-87 MG [7]): inactive
- Activity (U87 [8]): Dose-dependent effect
- Activity (HEK-293T): Non-Toxic

Compound: CC(C)(C)OC(=O)N1CC[C@]2(C(=O)Nc3ccccc32)[C@H]1c1cccc(-c2ccc(CO)cc2)c1
- IC50 (U-87 MG [1]; u-87mg atcc): Not Active

Compound: CC(C)(C)OC(=O)N1CCC2(C(=O)Nc3ccccc32)C1c1cccc(-c2ccc(CO)c(S(C)(=O)=O)c2)c1 (centres undefined)
- IC50 (U-87 MG [1]; [20]): 7.05 µM

Compound: CC(C)(C)OC(=O)N1CC[C@]2(C(=O)Nc3ccccc32)[C@H]1c1cccc(-c2ccc(CO)c(S(C)(=O)=O)c2)c1
- IC50 (U-87 MG [1]; [20]): 6.36 µM

Compound: CC(C)(C)CC(=O)N1CC[C@]2(C(=O)Nc3ccccc32)[C@H]1c1cccc(-c2ccc(CO)c(S(C)(=O)=O)c2)c1
- IC50 (U-87 MG [1]; u-87mg atcc): Not Active

Compound: CC(C)(C)OC(=O)N1CCC2(C(=O)Nc3ccccc32)C1c1cccc(-c2cc(F)c(CO)c(S(C)(=O)=O)c2)c1 (centres undefined)
- IC50 (U-87 MG [1]; [20]): 8.49 µM

Compound: CC(C)(C)OC(=O)N1CCC2(C(=O)Nc3ccccc32)C1c1cccc(Nc2ccc(CO)c(S(C)(=O)=O)c2)c1 (racemic)
- IC50 (U-87 MG [1]; [20]): 3.75 µM
- MRT inf [9]: 3.48 h
- Activity [10]: Non-Toxic
- Activity [11]: Non-Toxic
- half-life [12]: 2.98 h
- Cmax [13]: 1010 ng/mL
- AUC(0-t) at 24 h [14]: 1250 ng·h/mL
- AUC(0-inf) [15]: 1410 ng·h/mL
- Activity (U-87 MG [16]): Active
- Tmax [17]: 0.22 h

Compound: CC(C)(C)OC(=O)N1CC[C@]2(C(=O)Nc3ccccc32)[C@H]1c1cccc(-c2cccc(S(C)(=O)=O)c2)c1
- IC50 (U-87 MG [1]; u-87mg atcc): Not Active

Compound: CC(C)(C)OC(=O)N1CC[C@@]2(C(=O)Nc3ccccc32)[C@@H]1c1cccc(-c2ccc(CO)c(S(C)(=O)=O)c2)c1
- IC50 (U-87 MG [1]; u-87mg atcc): Not Active

Compound: CC(C)(C)OC(=O)N1CC[C@]2(C(=O)Nc3ccccc32)[C@H]1c1cccc(-c2cc(F)c(CO)c(S(C)(=O)=O)c2)c1
- IC50 (U-87 MG [1]; [20]): 7.78 µM

Compound: CC(C)(C)CC(=O)N1CC[C@@]2(C(=O)Nc3ccccc32)[C@@H]1c1cccc(-c2ccc(CO)c(S(C)(=O)=O)c2)c1
- IC50 (U-87 MG [1]; u-87mg atcc): Not Active

Compound: CC(C)(C)OC(=O)N1CC[C@@]2(C(=O)Nc3ccccc32)[C@@H]1c1cccc(-c2cc(F)c(CO)c(S(C)(=O)=O)c2)c1
- IC50 (U-87 MG [1]; u-87mg atcc): Not Active

Compound: COC(=O)c1ccc(-c2cccc([C@H]3N(C(=O)OC(C)(C)C)CC[C@]34C(=O)Nc3ccccc34)c2)cc1S(C)(=O)=O
- IC50 (U-87 MG [1]; [20]): 7.53 µM

Compound: COC(=O)c1ccc(-c2cccc(C3N(C(=O)OC(C)(C)C)CCC34C(=O)Nc3ccccc34)c2)cc1S(C)(=O)=O (centres undefined)
- IC50 (U-87 MG [1]; [20]): 13.3 µM

Compound: COC(=O)c1ccc(-c2cccc([C@@H]3N(C(=O)OC(C)(C)C)CC[C@@]34C(=O)Nc3ccccc34)c2)cc1S(C)(=O)=O
- IC50 (U-87 MG [1]; u-87mg atcc): Not Active

Compound: CC(C)(C)CC(=O)N1CCC2(C(=O)Nc3ccccc32)C1c1cccc(-c2ccc(CO)c(S(C)(=O)=O)c2)c1 (centres undefined)
- IC50 (U-87 MG [1]; u-87mg atcc): Not Active

Compound: CC(C)(C)OC(=O)N1CC[C@@]2(C(=O)Nc3ccccc32)[C@@H]1c1cccc(-c2ccccc2)c1
- IC50 (U-87 MG [1]; u-87mg atcc): Not Active

Compound: Fc1ccc(-c2c3cccc(C(F)(F)F)c3nn2Cc2ccc(F)cc2Cl)cc1 [LXR-623]
- IC50 (U-87 MG [1]; [20]): 6.14 µM
- IC50 (U-251): 3.06 µM
- IC50 (A 172): 8.3 µM
- Activity [10]: Toxic
- EC50 [18]: 0.000431 µM
- EC50 [19]: 0.000212 µM

Compound: O=C(O)Cc1cccc(OCCCN(Cc2cccc(C(F)(F)F)c2Cl)CC(c2ccccc2)c2ccccc2)c1
- IC50 (U-87 MG [1]; [20]): 3.65 µM
- Activity [10]: Toxic
- EC50 [18]: 0.000401 µM
- EC50 [19]: 0.000228 µM
